We go through 25 molecules from patent publication US11440906B2, “Biguanide derivatives and their rearrangement products for use in the treatment of cancer” (CENTRE NATIONAL DE LA RECHERCHE SCIENTIFIQUE, priority 2017, dated 2022).

Each structure is given as a SMILES string. Read-outs that look alike come from different tables or passages of the source.

The subject of this assay is A375 Sensitive cells. Put plainly: Viability test, trypan blue exclusion, A375 Sensitive cells. It counts as cell-based, human. As to conditions: Homo sapiens, A-375, viable cells as percentage of DMSO control. The procedure, abridged: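 A375 (B-Raf, CDKN2A, PTEN mutant) cells were exposed to compounds at 5.0 or 10 μM for 24 or 48 hr; CRO15 also at 0.5–50 μM for 48 hr or 5 μM for 2–48 hr; DMSO control. Viable cells were counted by trypan blue exclusion, as % of control. Three experiments in triplicate.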

Setting [1] is: 24 h, read-out: Viab A375 5 μM/ 24 h.
The mark [2] stands for this setting: 48 h, read-out: Viab A375 5 μM/ 48 h.
The mark [3] stands for this setting: 24 h, read-out: Viab A375 10 μM/ 24 h.
Setting [4] is: 48 h, read-out: Viab A375 10 μM/ 48 h.

As for `Cc1ccc(-c2nc(N)nc(Nc3ccccc3SSc3ccccc3Nc3nc(N)nc(-c4ccc(C)cc4)n3)n2)cc1` [MTF 451, N2,N2′-(disulfanediylbis(2,1-phenylene))bis(6-(p-tolyl)-1,3,5-triazine-2,4-diamine)], the viability at 5 µM by setting is: under setting [1], 26.1%; under setting [2], 23.9%. The viability at 10 µM under setting [3] amounted to 10.6% and the viability at 10 µM under setting [4] came to 12.5%.

Turning to `N=C(NC(=N)C(Cl)(Cl)Cl)Nc1nc2ccccc2s1` [MTF 305, N—(N-(benzo[d]thiazol-2-yl)carbamimidoyl)-2,2,2-trichloroacetimidamide], the viability at 5 µM under setting [1] amounted to 11% and the viability at 5 µM under setting [2] was found to be 20.7%. In addition, the viability at 10 µM under setting [3] was 5.5% and the viability at 10 µM under setting [4] is 4.7%.

In the case of `N=C(NC(=N)c1ccccn1)Nc1nc2ccccc2s1` [MTF 251, N—(N-(benzo[d]thiazol-2-yl)carbamimidoyl)picolinimidamide], the viability at 5 µM by setting is: under setting [1], 48.9%; under setting [2], 44.7%. For the same molecule, the viability at 10 µM was 45.1% under setting [3] and 19.5% under setting [4].

Regarding `N=C(NC(=N)c1ccnc(Br)c1)Nc1nc2ccccc2s1` [MTF 386, N—(N-(benzo[d]thiazol-2-yl)carbamimidoyl)-2-bromoisonicotinimidamide], the viability at 5 µM runs as follows: under setting [1], 28.9%; under setting [2], 6.6%. Besides, the viability at 10 µM reads like this: under setting [3], 18.1%; under setting [4], 3.7%.

As to `Cc1csc(NC(=N)NC(=N)c2cccc(Br)c2)n1` [MTF 288, 3-bromo-N—(N-(4-methylthiazol-2-yl)carbamimidoyl)benzimidamide], the viability at 5 µM runs as follows: under setting [1], 50%; under setting [2], 96.7%. The viability at 10 µM is, setting by setting: under setting [3], 70%; under setting [4], 53.5%.

Consider `Nc1nc(Nc2ccccc2SSc2ccccc2Nc2nc(N)nc(-c3cccc(Br)c3)n2)nc(-c2cccc(Br)c2)n1` [MTF 323, N2,N2′-(disulfanediylbis(2,1-phenylene))bis(6-(3-bromophenyl)-1,3,5-triazine-2,4-diamine)], for which the viability at 5 µM by setting is: under setting [1], 34.6%; under setting [2], 23.5%. Further, the viability at 10 µM stood at 47.4% under setting [3] and 8.3% under setting [4].

With `N=C(NC(=N)c1ccc2c(c1)OCO2)Nc1nc2ccccc2s1` [MTF 383, N—(N-(benzo[d]thiazol-2-yl)carbamimidoyl)benzo[d][1,3]dioxole-5-carboximidamide], the viability at 5 µM is, setting by setting: under setting [1], 43.1%; under setting [2], 40.6%. Moreover, the viability at 10 µM by setting is: under setting [3], 41.6%; under setting [4], 7.1%.

In the case of `N=C(NC(=N)c1ccncc1)Nc1nc(-c2ccccc2)cs1` [MTF 274, N—(N-(4-phenylthiazol-2-yl)carbamimidoyl)isonicotinimidamide], the viability at 5 µM under setting [1] was determined as 83% and the viability at 5 µM under setting [2] was 93%. The viability at 10 µM is, setting by setting: under setting [3], 84%; under setting [4], 89%.

For the molecule `Nc1cccc(-c2nc(N)nc(Nc3ccccc3SSc3ccccc3Nc3nc(N)nc(-c4cccc(N)c4)n3)n2)c1` [MTF 460, N2,N2′-(disulfanediylbis(2,1-phenylene))bis(6-(3-aminophenyl)-1,3,5-triazine-2,4-diamine)], the viability at 5 µM under setting [1] is 61.9% and the viability at 5 µM under setting [2] was 69.5%. The viability at 10 µM by setting is: under setting [3], 64.5%; under setting [4], 38.6%.

Regarding `COc1cc(C(=N)NC(=N)Nc2nc3ccccc3s2)cc(OC)c1OC` [MTF 382, N—(N-(benzo[d]thiazol-2-yl)carbamimidoyl)-3,4,5-trimethoxybenzimidamide], the viability at 5 µM runs as follows: under setting [1], 14.7%; under setting [2], 1.8%. In addition, the viability at 10 µM runs as follows: under setting [3], 17.4%; under setting [4], 4.5%.

In the case of `N=C(NC(=N)c1ccccc1Cl)Nc1nc(-c2cccc([N+](=O)[O-])c2)cs1` [MTF 276, 2-chloro-N—(N-(4-(3-nitrophenyl)thiazol-2-yl)carbamimidoyl)benzimidamide], the viability at 5 µM came to 91.6% under setting [1] and 95.3% under setting [2]. The viability at 10 µM was found to be 73.9% under setting [3] and 64.9% under setting [4].

Consider `N=c1nc(C(Cl)(Cl)Cl)nc(Nc2ccccc2O)[nH]1` [MTF 373, 2-((4-amino-6-(trichloromethyl)-1,3,5-triazin-2-yl)amino)phenol], for which the viability at 5 µM was 34.3% under setting [1] and 22.5% under setting [2]. In addition, the viability at 10 µM under setting [3] was 38.6% and the viability at 10 µM under setting [4] turned out to be 22.8%.

As for `N=C(NC(=N)c1ccccc1Br)Nc1nc2ccccc2s1` [MTF 250, N—(N-(benzo[d]thiazol-2-yl)carbamimidoyl)-2-bromobenzimidamide], the viability at 5 µM by setting is: under setting [1], 25.4%; under setting [2], 8.9%. The viability at 10 µM reads like this: under setting [3], 12%; under setting [4], 2.4%.

In the case of `COc1ccc(C(=N)NC(=N)Nc2nc(-c3ccccc3)cs2)cc1` [MTF 262, 4-methoxy-N—(N-(4-phenylthiazol-2-yl)carbamimidoyl)benzimidamide], the viability at 5 µM came out at 61.4% under setting [1] and 43.7% under setting [2]. The viability at 10 µM runs as follows: under setting [3], 40.8%; under setting [4], 27.3%.

On to `N=C(NC(=N)c1cnccn1)Nc1nc2ccccc2s1` [MTF 345, N—(N-(benzo[d]thiazol-2-yl)carbamimidoyl)pyrazine-2-carboximidamide], for which the viability at 5 µM was 25.9% under setting [1] and 1.8% under setting [2]. Besides, the viability at 10 µM stood at 17.1% under setting [3] and 1% under setting [4].

As for `Nc1nc(Nc2ccccc2SSc2ccccc2Nc2nc(N)nc(-c3ccc4ccccc4c3)n2)nc(-c2ccc3ccccc3c2)n1` [MTF 443, N2,N2′-(disulfanediylbis(2,1-phenylene))bis(6-(naphthalen-2-yl)-1,3,5-triazine-2,4-diamine)], the viability at 5 µM is, setting by setting: under setting [1], 42.3%; under setting [2], 10.2%. For the same molecule, the viability at 10 µM stood at 13.8% under setting [3] and 7.8% under setting [4].

`N=C(NC(=N)c1cccc(Cl)c1)Nc1nc2ccccc2s1` [MTF 243, N—(N-(benzo[d]thiazol-2-yl)carbamimidoyl)-3-chlorobenzimidamide]: the viability at 5 µM by setting is: under setting [1], 22.1%; under setting [2], 7%. In addition, the viability at 10 µM under setting [3] was found to be 12.1% and the viability at 10 µM under setting [4] is 2.7%.

For the molecule `CC1(C)C=Cc2cc(C(=N)NC(=N)Nc3nc4ccccc4s3)ccc2O1` [MTF 388, N—(N-(benzo[d]thiazol-2-yl)carbamimidoyl)-2,2-dimethyl-2H-chromene-6-carboximidamide], the viability at 5 µM reads like this: under setting [1], 61.4%; under setting [2], 65.1%. Further, the viability at 10 µM came to 55.7% under setting [3] and 18.4% under setting [4].

For `Nc1nc(Nc2ccc(F)cc2SSc2cc(F)ccc2Nc2nc(N)nc(C(Cl)(Cl)Cl)n2)nc(C(Cl)(Cl)Cl)n1` [MTF 234, N2,N2′-(disulfanediylbis(4-fluoro-2,1-phenylene))bis(6-(trichloromethyl)-1,3,5-triazine-2,4-diamine)], the viability at 5 µM reads like this: under setting [1], 29.6%; under setting [2], 17.4%. Besides, the viability at 10 µM reads like this: under setting [3], 9.6%; under setting [4], 7.8%.

Take `Nc1nc(Nc2ccccc2SSc2ccccc2Nc2nc(N)nc(-c3ccccn3)n2)nc(-c2ccccn2)n1` [MTF 321, N2,N2′-(disulfanediylbis(2,1-phenylene))bis(6-(pyridin-2-yl)-1,3,5-triazine-2,4-diamine)]: the viability at 5 µM under setting [1] amounted to 59.7% and the viability at 5 µM under setting [2] amounted to 34.5%. The viability at 10 µM is 53.8% under setting [3] and 32.1% under setting [4].

Consider `Nc1nc(Nc2ccccc2SSc2ccccc2Nc2nc(N)nc(-c3cnccn3)n2)nc(-c2cnccn2)n1` [MTF 348, N2,N2′-(disulfanediylbis(2,1-phenylene))bis(6-(pyrazin-2-yl)-1,3,5-triazine-2,4-diamine)], for which the viability at 5 µM worked out at 102% under setting [1] and 79.6% under setting [2]. The viability at 10 µM under setting [3] worked out at 110% and the viability at 10 µM under setting [4] is 35.8%.

As for `N=C(NC(=N)c1cccc(Br)c1)Nc1nc2ccccc2s1` [MTF 242, N—(N-(benzo[d]thiazol-2-yl)carbamimidoyl)-3-bromobenzimidamide], the viability at 5 µM is 29.2% under setting [1] and 8.1% under setting [2]. The viability at 10 µM under setting [3] was 13.4% and the viability at 10 µM under setting [4] was found to be 2.9%.

On to `Nc1nc(Nc2ccccc2SSc2ccccc2Nc2nc(N)nc(-c3cccs3)n2)nc(-c2cccs2)n1` [MTF 396, N2,N2′-(disulfanediylbis(2,1-phenylene))bis(6-(thiophen-2-yl)-1,3,5-triazine-2,4-diamine)], for which the viability at 5 µM worked out at 19.2% under setting [1] and 12.1% under setting [2]. The viability at 10 µM was found to be 7.5% under setting [3] and 0% under setting [4].

As for `N=C(NC(=N)c1ccccn1)Nc1nc(-c2ccccc2)cs1` [MTF 263, N—(N-(4-phenylthiazol-2-yl)carbamimidoyl)picolinimidamide], the viability at 5 µM by setting is: under setting [1], 89.5%; under setting [2], 91%. Moreover, the viability at 10 µM under setting [3] was determined as 100% and the viability at 10 µM under setting [4] turned out to be 66%.

As for `N=C(NC(=N)c1cscc1Br)Nc1nc2ccccc2s1` [MTF 387, N—(N-(benzo[d]thiazol-2-yl)carbamimidoyl)-4-bromothiophene-3-carboximidamide], the viability at 5 µM runs as follows: under setting [1], 70.1%; under setting [2], 56.2%. Also, the viability at 10 µM was 67.8% under setting [3] and 55.6% under setting [4].
